Experimental data reported in patent US5618844A, “Hydroxamic acid and carboxylic acid derivatives, process for their preparation and use thereof” (Sanofi S.A., priority 1995, dated 1997).

Assays:
Type in all cases: biochemical
[1] = biological target: T1, Human Fibroblast Collagenase (Homo sapiens, UniProt P03956); test: inhibition of recombinant MMP, peptide substrate assay with fluorescamine detection (HFC); conditions: calculated from measured percent inhibition using Km, assuming competitive inhibition; Met1-Pro250 proenzyme, activated with p-aminophenylmercury
T1 construct: All active MMPs are purified by gel filtration; made in house
T1 sequence (P03956 100-269 limits assumed): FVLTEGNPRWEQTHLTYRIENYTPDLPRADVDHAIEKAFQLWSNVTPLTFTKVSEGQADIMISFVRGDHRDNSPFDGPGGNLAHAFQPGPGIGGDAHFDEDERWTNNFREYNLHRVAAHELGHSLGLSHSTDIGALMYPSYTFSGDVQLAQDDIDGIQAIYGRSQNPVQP

[2] = biological target: T2, Human Neutrophil Collagenase (Homo sapiens, UniProt P22894); test: inhibition of recombinant MMP, peptide substrate assay with fluorescamine detection (HNC); conditions: calculated from measured percent inhibition using Km, assuming competitive inhibition; Met100-Gly262
T2 construct: expressed as mature enzymes with C-terminal truncations, Phe83-Thr260 and Met100-Gly262, respectively; made in house

[3] = biological target: T3, Human Fibroblast Stromelysin (Homo sapiens, UniProt P08254); test: inhibition of recombinant MMP, peptide substrate assay with fluorescamine detection (HFS)
T3 construct: expressed as mature enzymes with C-terminal truncations, Phe83-Thr260 and Met100-Gly262, respectively; made in house
T3 sequence (P08254 100-277): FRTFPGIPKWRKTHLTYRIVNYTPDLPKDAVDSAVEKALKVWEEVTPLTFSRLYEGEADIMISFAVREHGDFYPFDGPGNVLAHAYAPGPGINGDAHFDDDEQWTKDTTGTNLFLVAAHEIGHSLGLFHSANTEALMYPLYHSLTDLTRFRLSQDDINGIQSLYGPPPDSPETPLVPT

T2 sequence (P22894 100-262): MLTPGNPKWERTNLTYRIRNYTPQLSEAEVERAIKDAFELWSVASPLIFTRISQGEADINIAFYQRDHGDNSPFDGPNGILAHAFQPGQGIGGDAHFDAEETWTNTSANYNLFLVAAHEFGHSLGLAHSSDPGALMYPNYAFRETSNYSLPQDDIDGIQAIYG

Row | Ki [1] [nM] | Ki [2] [nM] | Ki [3] [nM] | Structure (SMILES)
1 | 1450 | – | – | CNC(=O)[C@H](Cc1ccccc1)NC(=O)[C@H](CCCCOCc1ccccc1)CC(=O)NO [Example 2, N-[(2R)-2-[2'-(Hydroxyamino)-2'(oxo)ethyl]-6-(phenylmethoxy)hexanoyl]-L-phenylalanine N-methylamide]
2 | 30 | 7 | – | CNC(=O)[C@H](Cc1ccccc1)NC(=O)[C@H](CCCCO)CC(=O)NO [Example 3, N-[(2R)-2-[2'-(hydroxyamino)-2'-(oxo)ethyl]-6-(hydroxy)hexanoyl]-L-phenylalanine N-methylamide]
3 | – | 270 | – | CNC(=O)[C@H](Cc1ccccc1)NC(=O)[C@H](CCCC(=O)O)CC(=O)NO [Example 4, N-[(2R)-2-[2'-(Hydroxyamino)-2'-(oxo)ethyl]-5-(carboxy)pentanoyl]-L-phenylalanine N-methylamide]
4 | 5100 | < 2 | – | CCCNC(=O)CCC[C@H](CC(=O)NO)C(=O)N[C@@H](Cc1ccccc1)C(=O)NC [Example 5, N-[(2R)-2-[2'-(Hydroxyamino)-2'-(oxo)ethyl]-6-(propylamino)-6-(oxo)hexanoyl]-L-phenylalanine N-methylamide]
5 | 150 | 20 | 1500 | CNC(=O)[C@H](Cc1ccccc1)NC(=O)[C@H](CCCC(C)O)CC(=O)NO (stereo partly drawn) [Example 6, N-[(2R)-2-[2'-(Hydroxyamino)-2'-(oxo)ethyl]-(6RS)-6-(hydroxy)heptanoyl]-L-phenylalanine N-methylamide]
6 | 27 | 17 | 5000 | CNC(=O)[C@@H](NC(=O)[C@H](CCCCO)CC(=O)NO)C(C)(C)C [Example 9, (2S)-N-2-[(2'R)-2'-[2"-(Hydroxyamino)-2"-(oxo)ethyl]-6'-(hydroxy)hexanoyl]amino-3,3-dimethylbutanoic acid N-methylamide]
7 | 2270 | – | – | CNC(=O)[C@H](Cc1ccccc1)NC(=O)[C@H](CCCOCc1ccccc1)CC(=O)NO [Example 10, N-[(2R)-2-[2'-(Hydroxyamino)-2'-(oxo)ethyl]-5-(phenylmethoxy)pentanoyl]-L-phenylalanine N-methylamide]
8 | 920 | 4 | – | CNC(=O)[C@H](Cc1ccccc1)NC(=O)[C@H](CCCCCOCc1ccccc1)CC(=O)NO [Example 11, N-[(2R)-2-[2'-(Hydroxyamino)-2'-(oxo)ethyl]-7-(phenylmethoxy)heptanoyl]-L-phenylalanine N-methylamide]
9 | 1600 | 120 | – | CCCC(=O)NCCCC[C@H](CC(=O)NO)C(=O)N[C@@H](Cc1ccccc1)C(=O)NC [Example 12]
10 | 8 | – | – | CNC(=O)[C@H](Cc1ccccc1)NC(=O)[C@H](CCCCOc1ccccc1)CC(=O)NO [Example 13, N-[(2R)-2-[2'-(Hydroxyamino)-2'-(oxo)ethyl]-6-(phenoxy)-hexanoyl]-L-phenylalanine N-methylamide]
11 | 35 | 16 | 26 | CNC(=O)[C@@H](NC(=O)[C@H](CCCC(=O)NCCc1ccccc1)CC(=O)NO)C(C)(C)C [Example 15, (2S)-N-2'-[(2'R)-2'-[2"-(Hydroxyamino)-2"-(oxo)ethyl]-6'-(2-phenethylamino)-6' (oxo)hexanoyl]amino-3,3-dimethylbutanoic acid N-methylamide]
12 | 14 | – | – | CNC(=O)[C@@H](NC(=O)[C@H](CCCCOc1ccc(C)cc1)CC(=O)NO)C(C)(C)C [Example 16, (2S)-N-2'-[(2'R)-2'-[2"-(Hydroxyamino)-2"-(oxo)ethyl]-6'-(4-methylphenoxy)hexanoyl]amino-3,3-dimethylbutanoic acid N-methylamide]
13 | 21 | – | – | CNC(=O)[C@@H](NC(=O)[C@H](CCCCOc1ccc(Cl)cc1)CC(=O)NO)C(C)(C)C [Example 17, (2S)-N-2'-[(2'R)-2'-[2"-(Hydroxyamino)-2"-(oxo)ethyl]-6'-(4-chlorophenoxy)hexanoyl]amino-3,3-dimethylbutanoic acid N-methylamide]
14 | 1800 | – | 220 | CNC(=O)[C@@H](NC(=O)[C@H](CCCCOc1cccc(C)c1)CC(=O)O)C(C)(C)C [Example 19, (2S)-N-2'-[(2'R)-2'-(carboxymethyl)-6'-(3-methylphenoxy)hexanoyl]amino-3,3-dimethylbutanoic acid N-methylamide]

Row | Structure (SMILES) | Ki [1] [nM] | Ki [2] [nM] | Ki [3] [nM]
15 | CNC(=O)[C@@H](NC(=O)[C@H](CCCCOCc1ccccc1)CC(=O)NO)C(C)(C)C [Example 8, (2S)-N-2-[(2'R)-2'-[2"-(Hydroxyamino)-2"-(oxo)ethyl]-6'-(phenylmethoxy)hexanoyl]amino-3,3-dimethylbutanoic acid N-methylamide] | 1400 | 5 | 57
